Laboratory results: patent publication US20260041629A1, “Methods and Systems to Reduce Injury in Treated Tissues” (MileHigh Repro Solutions, LLC, priority 2022, published 2026)

Columns and labels:
ewe cervices = test: Experiment 1: in vitro efficacy of solution, AI rod passage through excised cervical tracts; conditions: ¼ cc rod, tracts treated 1 hour, * = statistically significant improvement over control
Experimental: Ewe and bison cervical tracts were obtained to assess local responses in living tissue thereby modeling in vivo response to a solution. Tracts were treated for 1 hour with the respective solution using an absorbent matrix applicator, then ¼ cc AI rods were passed through the cervix, mimicking trans-cervical artificial insemination. A total of […] tracts were utilized with each of 13 treatments tested in 11 replicates. The estimated number of rings passed was recorded. Post-treatment tracts were dissected, then length and cervical anatomy were recorded, and relationships between cervical structure, ring number and position were and analyzed. Ring passage data was transformed into a percentage of rings passed to normalize the data and to allow comparison across an undefined variety of tissues, breeds, ages, and other etiological differences. A paired T-test indicated trends in increased passage of AI rod (P=0.064) when treating the cervix versus control.

boar sperm = test: Experiment 2: compatibility with sperm in vitro (motility by computer assisted sperm analyzer); format: cell-based; conditions: exposure 3 hours, 37° C
Experimental: A successful cervical softening agent should be safe for a mammal's tissues and also for sperm used to inseminate the mammal. It was anticipated that the cervical tract and the AI rod will each retain a residue of the solution treatment which may then combine with the semen inside the cervix or uterus. Therefore, experiments were performed using sperm samples from boars to evaluate the toxicity of each proposed treatment and blends.
Extended boar sperm doses (28×10^6/ml; 1 ml) were incubated with each of the miscible solutions at 3 concentrations, 0.1 μL, 0.5 μL, or 1 μL per 1 mL extended sperm, then the sperm with the solution were incubated for 3 hours at 37° C. Motility characteristics were measured via computer assisted sperm analyzer. This experiment was replicated 4 times.

## CCCC[N+]1(C)[C@@H]2C[C@@H](OC(=O)[C@H](CO)c3ccccc3)C[C@H]1[C@@H]1O[C@@H]12 (stereo partly shown) [Extract F, hyoscine butylbromide]
Ewe cervices
  Avg. % Cervical rings passed: 50.02* %
Boar sperm; dose 0.1 μL in 1 mL sperm
  Sperm motility, motile percentage of the total number of spermatozoa: 90.7%
Boar sperm; dose 0.5 μL in 1 mL sperm
  Sperm motility, motile percentage of the total number of spermatozoa: 93.3%
Boar sperm; dose 1 μL in 1 mL sperm
  Sperm motility, motile percentage of the total number of spermatozoa: 91.8%
